In patent publication US20140024839A1, “FULLERENE DERIVATIVE, AND METHOD OF PREPARING THE SAME” (RICOH COMPANY, LTD., priority 2012, published 2014):

Experiment: Solubility in o-dichlorobenzene (saturated solution, HPLC with standard curves)
Format: physicochemical
Details: saturated o-dichlorobenzene solution at 25° C., filtered 0.45 μm, HPLC 254 nm
Method: Solubilities of the fullerene derivatives having the formulae (1a) to (5a) of the present invention in Examples 1 to 5 and the fullero pyrrolidine in Application Examples 1 to 5 in o-dichlorobenzene were evaluated by the following method. A 0.1 mM o-dichlorobenzene solution and a 1.0 mM o-dichlorobenzene solution of each of the fullerene derivatives and the fullero pyrrolidine were prepared, and diluted fivefold with THF for HPLC. Ten (10) μL of the diluted solution was analyzed by a high-speed liquid chromatograph (LC-2010HT from Shimadzu Corp.; developing solvent: THF/ion-exchanged water=60/40; analysis time: 60 min; and detection wavelength: 254 nm) to prepare a chromatogram. Standard curves of the known concentrations (0.1 mM and 1.0 mM) were obtained therefrom. Next, a saturated o-dichlorobenzene solution of each of the fullerene derivatives and the fullero pyrrolidine were prepared at 25° C. After the saturated solution was filtered with a 0.45 μm filter, it was diluted hundredfold with THF for HPLC. Ten (10) μL of the diluted solution was analyzed by the same method mentioned above to prepare a chromatogram. A weight of the fullerene derivative dissolved in 1 mL of o-dichlorobenzene was determined as solubility using a peak area value of the chromatogram from the saturated solution and the standard curves.

Row | SMILES | Weight of the fullerene derivative dissolved in 1 mL of o-dichlorobenzene [mg]
1 | CCCCCCCCCC1N(c2ccc(OC(=O)OC(C)(C)C)cc2)CC23C4=c5c6c7c8c9c%10c%11c%12c%13c%14c%15c%16c(c5c(c%15%12)c%106)C12C1C%162CC15c1c6c%10c%12c%15c%16c%17c%18c%19c%20c%21c%22c%23c%24c(c1c%12c(c%21%24)c%19%15)C5C3C%23C4C7C%22C8C%20C%18C9C%11C%17C%13C%16C%10C%14C62 (stereo not drawn) [formula (4a)] | 159
2 | CCCCCCCCCCCCC1N(c2ccc(OC(=O)OC(C)(C)C)cc2)CC23C4=c5c6c7c8c9c%10c%11c%12c%13c%14c%15c%16c(c5c(c%15%12)c%106)C12C1C%162CC15c1c6c%10c%12c%15c%16c%17c%18c%19c%20c%21c%22c%23c%24c(c1c%12c(c%21%24)c%19%15)C5C3C%23C4C7C%22C8C%20C%18C9C%11C%17C%13C%16C%10C%14C62 (stereo not drawn) [formula (5a)] | 280
3 | CC(C)(C)OC(=O)Oc1ccc(N2CC34C5=c6c7c8c9c%10c%11c%12c%13c%14c%15c%16c%17c(c6c(c%16%13)c%117)C3(C2C(C)(C)C)C2C%173CC26c2c7c%11c%13c%16c2c2c%17c%18c%19c%20c%21c%22c%23c(c-%13c%21c%18%16)C(C%14C%23C%12C%10C%22C%20C9C9C8C5C(C%17C%199)C4C26)C%11C%15C73)cc1 (stereo not drawn) [formula (3a)] | 107
